Laboratory results: US20070037149A1, “Human calcium transporter 1 gene, screening method of calcium absorption regulating factor, and calcium absorption regulating factor” (priority 2003, published 2007)

Columns and labels:
[1] = target: T1, human CaT1 (Homo sapiens, UniProt Q9H1D0, I526V); test: 45Ca2+ uptake by human CaT1 constant expression cells (CHO cells transfected with pMEHis-CaT1); assay type: cell-based; details: preincubated 4 hours; for amount of 45Ca2+ incorporated into the cells versus control: 3.0 mM, ANOVA, FIG. 28
T1 construct: expressed in transfected cells
T1 sequence (Q9H1D0 45-765 I526V): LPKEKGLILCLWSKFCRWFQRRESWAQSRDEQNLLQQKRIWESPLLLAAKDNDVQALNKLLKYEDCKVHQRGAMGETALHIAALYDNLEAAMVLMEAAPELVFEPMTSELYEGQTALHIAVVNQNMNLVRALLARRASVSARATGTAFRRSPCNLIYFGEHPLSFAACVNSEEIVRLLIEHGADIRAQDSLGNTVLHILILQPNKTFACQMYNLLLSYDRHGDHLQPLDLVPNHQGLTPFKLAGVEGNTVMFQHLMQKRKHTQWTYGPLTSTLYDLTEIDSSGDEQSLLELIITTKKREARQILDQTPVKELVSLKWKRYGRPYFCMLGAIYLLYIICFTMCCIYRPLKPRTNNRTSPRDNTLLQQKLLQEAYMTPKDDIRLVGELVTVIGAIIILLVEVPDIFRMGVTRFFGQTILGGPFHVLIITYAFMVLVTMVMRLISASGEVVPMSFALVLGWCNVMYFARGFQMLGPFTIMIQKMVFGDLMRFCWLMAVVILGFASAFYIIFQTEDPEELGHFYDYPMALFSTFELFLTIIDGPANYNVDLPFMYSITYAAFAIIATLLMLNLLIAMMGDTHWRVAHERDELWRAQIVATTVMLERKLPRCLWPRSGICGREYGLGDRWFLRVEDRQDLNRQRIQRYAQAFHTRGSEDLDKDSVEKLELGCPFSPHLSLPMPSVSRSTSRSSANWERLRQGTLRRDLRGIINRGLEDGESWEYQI

[2] = target: T1, human CaT1; test: as above; assay type: cell-based; details: for amount of 45Ca2+ incorporated, influence of metal ions: versus control, FIG. 14
Method: That is, 1×10^5 cells/well of human CaT1 constant expression cells were cultured on a 24-well plate using a medium obtained by adding 10% FCS (fetal calf serum) was added to the above-mentioned DMEM/F12 medium at 37° C. for 5 days in a CO2 environment. After the medium was removed and the cells were washed with PBS buffer and HBSS buffer, to each well added was HBSS buffer containing 5.28 μM of ^45 Ca^2+, which was removed after a predetermined time (usually for 10 minutes excepting the case in which cultivation time is varied (time course is to be obtained)), the cells were solubilized with 1% triton (triton X-100), and then the cells were recovered. The amount of ^45Ca^2+ incorporated into the cells was measured using a liquid scintillation counter. As a control, CHO cells transfected with no human CaT1 gene were also subjected to the same operations to measure the amount of ^45Ca^2+ incorporated in the cells.
On the other hand, the effects of the metallic ion were examined by the same culture conditions and procedures as those in (4) except that 100 μM each of chloride salts La^3+, Gd^3+, Cd^2+, Co^2+, Fe^2+, Mn^2+, and Mg^2+ (10 mM for Mg2+ only) and 100 μM of choline chloride (Cho-Cl) were added to a HBSS buffer containing 5.28 μM of ^45Ca^2+.
In other words, in regards to a cultured human CaT1 constant expression cells evaluated by the same culture conditions and procedures as those in (4), a medium was displaced by a DMEM (—Ca) medium (Dulbecco's Modified Eagle Medium (cont.) Base Catalog No. 21068, manufactured by GIBCO™ Invitrogen Corporation: KCl 400.00 mg/l, NaCl 6400.00 mg/l, NaHCO3 3700.00 mg/l, NaH2PO4.H2O 125.00 mg/l, D-glucose 4500.00 mg/l, L-isoleucine 105.00 mg/l, L-leucine 105.00 mg/l, L-lysine.HCl 146.00 mg/l, L-tyrosin/2Na.2H2O 104.00mg/l) containing, as the food factor, 7% lactose (special grade reagents) 1% casein enzymatic degradation products, 1% guar gum hydrolysate, and soybean enzymatic degradation products (manufactured by Fuji oil Co., Ltd.), respectively, and the amount of ^45Ca^2+ incorporated into the cells was measured after preincubation for additional 4 hours.
The enzyme-treated sample obtained in (1) was dissolved in DMEM (—Ca) (the same as that used in Example 1(6)) so as to make a concentration of 1.0 (w/v)%. This was added to human CaT1 constant expression cells cultivated by the same culture conditions and the same procedures as those in Example 1(4) and CHO cells transfected with no human CaT1 gene, and these cells were preincubated for 4 hours. A medium contained 2.5% dialyzed (Spectra/POR MWCO:100) FCS and 2% L-glutamine solution.
Immediately after completion of the pretreatement, the amount of ^45Ca^2+ incorporated into the cells was measured by the same technique as used in Example 1(4). On the other hand, the same procedure was followed without addition of the enzyme-treated samples as a control.

[3] = target: human calcium transporter 1 (human CaT1) (human) (UniProt Q9H1D0); test: cell-based or functional assay
[4] = 100 μM chloride salt in HBSS buffer with 5.28 μM 45Ca2+

Compound: C[C@H](N)C(=O)O [Ala]
- amount of 45Ca2+ incorporated into the cells versus control [1]: no significant increase

Compound: [Cl][Cd][Cl] [Cd^2+]
- amount of 45Ca2+ incorporated, influence of metal ions [2, 4]: inhibit

Compound: [Co+2] [Co^2+]
- amount of 45Ca2+ incorporated, influence of metal ions [2, 4]: inhibit

Compound: [Fe+2] [Fe^2+]
- amount of 45Ca2+ incorporated, influence of metal ions [2, 4]: no significant difference

Compound: [Gd+3] [Gd^3+]
- amount of 45Ca2+ incorporated, influence of metal ions [2, 4]: inhibit

Compound: CC[C@H](C)[C@H](N)C(=O)O [Ile]
- amount of 45Ca2+ incorporated into the cells versus control [1]: no significant increase

Compound: [La+3] [La^3+]
- amount of 45Ca2+ incorporated, influence of metal ions [2, 4]: inhibit

Compound: [Mg+2] [Mg^2+]
- amount of 45Ca2+ incorporated, influence of metal ions ([2]; 10 mM (Mg2+ only) in HBSS buffer with 5.28 μM 45Ca2+): no significant difference

Compound: [Mn+2] [Mn^2+]
- amount of 45Ca2+ incorporated, influence of metal ions [2, 4]: no significant difference

Compound: O=C(O)[C@@H]1CCCN1 [Pro]
- amount of 45Ca2+ incorporated into the cells versus control [1]: no significant increase

Compound: OC[C@H]1O[C@@H](O[C@H]2[C@H](O)[C@@H](O)C(O)O[C@@H]2CO)[C@H](O)[C@@H](O)[C@H]1O (some centres unmarked) [lactose]
- amount of 45Ca2+ incorporated into the cells, influence of food factor ([2]; 7% in DMEM (-Ca) medium, preincubation 4 hours, FIG. 15): increased

Compound: Ile-Pro-Ala (IPA) [synthetic peptide IPA]
- amounts of 45Ca2+ incorporated into the cells, influence of concentration ([1]; 0, 0.25, 0.5, 1.0 mg/ml, FIG. 27): significantly increased depending on the concentration

Compound: Ile-Pro-Ala [peak 1]
- amount of 45Ca2+ incorporated into the cells, HPLC peaks ([1]; 0.5 mg/ml, ANOVA p<0.05 versus other peaks and control, FIG. 25): increased significantly

Compound: Ile-Pro-Ile [IPI]
- amount of 45Ca2+ incorporated into the cells versus control [1]: no significant increase

Compound: enzymatic degradation product of cheese whey (CWP-D)
- Km of Ca2+ uptake with CWP-D pretreatment (+CWP-D) [3]: 0.019 mM
- Vmax of Ca2+ uptake with CWP-D pretreatment (+CWP-D) (pmol/mg/10 min) [3]: 1.06
- amount of 45Ca2+ incorporated into human CaT1 constant expression cells (fold of control, 1.0 (w/v)% CWP-D, 4 h pretreatment) [3]: 8 times
